# Test results reported in US7674789B2, “Compounds” (Glaxo Group Limited, priority 2005, dated 2010).
# “Also recorded” adds a separate entry of the source.
# Test system: influx of neutrophils to the lung in LPS-challenged rats
# Assay: Rat LPS neutrophilia model
# Assay type: in vivo
# Conditions: intratracheal compound 15 min-24 hours before LPS aerosol (100 ug/ml, 15 min), lavage 4 hours later, in at least one of the range of conditions tested
# Experimental: Rat LPS Neutrophilia Model
# The effect of compounds on the influx of neutrophils to the lung in LPS-challenged rats is evaluated as follows. The test compound is suspended in one of the following solutions: 0.5% tween 80/PBS, 0.5% tween 80/saline, 10% EtOH/saline (with pH adjusted to 2.0, or 8.0 with HCl, or unadjusted), Saline @ pH 2.0, 6.5 or 8.0, 0.5% Tragacanth, 1% DMSO/20% Encapsin/Saline, or acidified 5% Tragacanth. The suspension process may be aided by the use of a glass homogenizer. For intratracheal administration, the animals are anesthetized with inhaled isoflurane and placed in a supine position, the trachea is intubated with a steel gavage needle (1.5 inch, 22 gauge, small ball) or a Penn-Century Microsprayer Aerosolizer (model IA-1B) and 200 ul of dosing solution is delivered. The animals are visually monitored during the recovery process, which typically occurs within two minutes.
# Rats treated with compound or vehicle (15 min-24 hours pretreatment) are exposed to an LPS aerosol (100 ug/ml) for 15 min. Four hours later the rats are euthanized with pentobarbital (100 mg/kg, i.p.) and the airways are lavaged with 5 washes of 5 ml of phosphate buffered saline. The harvested cells are stained (Diffquick) and counted to determine total and differential cell data. In a typical study, macrophages represent 40-70% of the total cells, and polymorphonuclear cells 30-60% of the total cells. Inhibition of neutrophil levels relative to no compound controls is calculated based on the differential counts.
# The assay has varying conditions, such as concentration, pretreat time, form of the compound (crystalline, amorphous, salts, micronised), and a wet or dry application of the compound. The data is obtained as % inhibition using a particular concentration and pretreat time.
row,SMILES,inhibition of neutrophilia (neutrophil influx to the lung)
1,"Cc1ccc(C(=O)NC(C)C)cc1-c1nc(NC2CCN(Cc3ccccc3)CC2)nc2c1CNC(=O)N2c1c(F)cccc1F [Example 200, 3-(8-(2,6-difluorophenyl)-7-oxo-2-{[1-(phenylmethyl)-4-piperidinyl]amino}-5,6,7,8-tetrahydropyrimido[4,5-d]pyrimidin-4-yl)-4-methyl-N-(1-methylethyl)benzamide]",statistically significant inhibition of neutrophilia
2,"Cc1ccc(C(=O)Nc2nccs2)cc1-c1nc(NC[C@H](C)O)nc2c1CNC(=O)N2c1c(F)cccc1F [Example 134, 3-(8-(2,6-difluorophenyl)-2-{[(2S)-2-hydroxypropyl]amino}-7-oxo-5,6,7,8-tetrahydropyrimido[4,5-d]pyrimidin-4-yl)-4-methyl-N-1,3-thiazol-2-ylbenzamide]",statistically nonsignificant inhibition of neutrophilia
3,"Cc1ccc(C(=O)Nc2ccc(F)cc2)cc1-c1nc(N(C)CCCN(C)C)nc2c1CNC(=O)N2c1c(F)cccc1F [Example 9, 3-{8-(2,6-difluorophenyl)-2-[[3-(dimethylamino)-propyl](methyl)amino]-7-oxo-5,6,7,8-tetrahydropyrimido[4,5-d]pyrimidin-4-yl}-N-(4-fluorophenyl)-4-methylbenzamide]",statistically nonsignificant inhibition of neutrophilia
4,"Cc1ccc(C(=O)Nc2ccc(C)c(-c3nc(OC(C)C)nc4c3CNC(=O)N4c3c(F)cccc3F)c2)cc1F [Example 26, N-(3-{8-(2,6-difluorophenyl)-2-[(1-methylethyl)oxy]-7-oxo-5,6,7,8-tetrahydropyrimido[4,5-d]pyrimidin-4-yl}-4-methylphenyl)-3-fluoro-4-methylbenzamide]",inactive
5,"Cc1ccc(C(=O)NC(C)C)cc1-c1nc(N2CCC(N3CCN(C)CC3)CC2)nc2c1CNC(=O)N2c1c(F)cccc1F [Example 72, 3-{8-(2,6-difluorophenyl)-2-[4-(4-methyl-1-piperazinyl)-1-piperidinyl]-7-oxo-5,6,7,8-tetrahydropyrimido[4,5-d]pyrimidin-4-yl}-4-methyl-N-(1-methylethyl)benzamide]",statistically significant inhibition of neutrophilia
6,"CCCNC(=O)c1ccc(C)c(-c2nc(NCCCN(CC)CC)nc3c2CNC(=O)N3c2c(F)cccc2F)c1 [29(c), 3-[2-{[3-(diethylamino)propyl]amino}-8-(2,6-difluorophenyl)-7-oxo-5,6,7,8-tetrahydropyrimido[4,5-d]pyrimidin-4-yl]-4-methyl-N-propylbenzamide]",statistically significant inhibition of neutrophilia
7,"Cc1ccc(C(=O)NC(C)C)cc1-c1nc(N2CCC(N3CCCC3)CC2)nc2c1CNC(=O)N2c1c(F)cccc1F [Example 60, 3-{8-(2,6-difluorophenyl)-7-oxo-2-[4-(1-pyrrolidinyl)-1-piperidinyl]-5,6,7,8-tetrahydropyrimido[4,5-d]pyrimidin-4-yl}-4-methyl-N-(1-methylethyl)benzamide]",statistically nonsignificant inhibition of neutrophilia; also recorded: inactive
8,"CNC(=O)c1ccc(C)c(-c2nc(NCCCN(C)C)nc3c2CNC(=O)N3c2c(F)cccc2F)c1 [Example 166, 3-(8-(2,6-difluorophenyl)-2-{[3-(dimethylamino)propyl]amino}-7-oxo-5,6,7,8-tetrahydropyrimido[4,5-d]pyrimidin-4-yl)-N,4-dimethylbenzamide]",statistically nonsignificant inhibition of neutrophilia
9,"Cc1ccc(C(=O)Nc2nccs2)cc1-c1nc(NCCN(C)C)nc2c1CNC(=O)N2c1c(F)cccc1F [118(c), 3-(8-(2,6-difluorophenyl)-2-{[2-(dimethylamino)ethyl]amino}-7-oxo-5,6,7,8-tetrahydropyrimido[4,5-d]pyrimidin-4-yl)-4-methyl-N-1,3-thiazol-2-ylbenzamide]",statistically significant inhibition of neutrophilia
10,"Cc1ccc(C(=O)NC(C)C)cc1-c1nc(N(C)CCCN(C)C)nc2c1CNC(=O)N2c1c(F)cccc1F [34(d), 3-{8-(2,6-difluorophenyl)-2-[[3-(dimethylamino)propyl](methyl)amino]-7-oxo-5,6,7,8-tetrahydropyrimido[4,5-d]pyrimidin-4-yl}-4-methyl-N-(1-methylethyl)benzamide]",statistically nonsignificant inhibition of neutrophilia
11,"CNC(=O)c1ccc(C)c(-c2nc(N3CCC(N4CCCCC4)CC3)nc3c2CNC(=O)N3c2c(F)cccc2F)c1 [Example 176, 3-[2-(1,4′-bipiperidin-1′-yl)-8-(2,6-difluorophenyl)-7-oxo-5,6,7,8-tetrahydropyrimido[4,5-d]pyrimidin-4-yl]-N,4-dimethylbenzamide]",statistically nonsignificant inhibition of neutrophilia
12,"Cc1ccc(C(=O)NCc2ccccc2)cc1-c1nc(N(C)CCCN(C)C)nc2c1CNC(=O)N2c1c(F)cccc1F [Example 17, 3-{8-(2,6-Difluorophenyl)-2-[[3-(dimethylamino)propyl](methyl)amino]-7-oxo-5,6,7,8-tetrahydropyrimido[4,5-d]pyrimidin-4-yl}-4-methyl-N-(phenylmethyl)benzamide]",statistically nonsignificant inhibition of neutrophilia
13,"Cc1ccc(NC(=O)c2ccsc2)cc1-c1nc(N2CCC(N)CC2)nc2c1CNC(=O)N2c1c(F)cccc1F [Example 11, N-{3-[2-(4-amino-1-piperidinyl)-8-(2,6-difluorophenyl)-7-oxo-5,6,7,8-tetrahydropyrimido[4,5-d]pyrimidin-4-yl]-4-methylphenyl}-3-thiophenecarboxamide]",statistically significant inhibition of neutrophilia
14,"Cc1ccc(C(=O)NC(C)C)cc1-c1nc(NCCN(C)C)nc2c1CNC(=O)N2c1c(F)cccc1F [Example 37, 3-(8-(2,6-difluorophenyl)-2-{[2-(dimethylamino)ethyl]amino}-7-oxo-5,6,7,8-tetrahydropyrimido[4,5-d]pyrimidin-4-yl)-4-methyl-N-(1-methylethyl)benzamide]",statistically nonsignificant inhibition of neutrophilia
15,"CN(C)CCNc1nc(-c2cccc(C(=O)Nc3ccccc3)c2)c2c(n1)N(c1c(F)cccc1F)C(=O)NC2 [Example 91, 3-(8-(2,6-difluorophenyl)-2-{[2-(dimethylamino)ethyl]amino}-7-oxo-5,6,7,8-tetrahydropyrimido[4,5-d]pyrimidin-4-yl)-N-phenylbenzamide]",statistically significant inhibition of neutrophilia
16,"Cc1ccc(C(=O)Nc2ccc(C)c(-c3nc(N4CCC(N)CC4)nc4c3CNC(=O)N4c3c(F)cccc3F)c2)cc1F [Example 24, N-{3-[2-(4-amino-1-piperidinyl)-8-(2,6-difluorophenyl)-7-oxo-5,6,7,8-tetrahydropyrimido[4,5-d]pyrimidin-4-yl]-4-methylphenyl}-3-fluoro-4-methylbenzamide]",statistically nonsignificant inhibition of neutrophilia
